Measured values as given in patent US9409905B2, “Antibacterial compounds and methods for use” (PTC THERAPEUTICS, INC., priority 2011, dated 2016).
In brackets after ≈: the same amount, converted by molar mass.

Tests used:
[1] = tested on: E. coli 25922; assay: Antibacterial activity, microbroth dilution MIC (Table 1); format: cell-based, Escherichia coli; details: Escherichia coli; microbroth dilution; control Gram-negative E. coli 25922 strain; read-out: MIC, 25922
Source text: (§1) The antibacterial activity from a microbroth dilution method may be presented as the minimum inhibitory concentration (MIC in μg/mL). The MIC value is the lowest concentration of drug which prevents macroscopically visible growth under test conditions.
(§2) Antibacterial activity of test compounds against the super sensitive Gram-negative Escherichia coli (E. coli) BAS849 bacterium, the control Gram-negative E. coli 25922 strain and the Gram-positive Staphylococcus aureus (S. aureus) 29213 bacterium are shown in Table 1.

[2] = tested on: Escherichia coli (E. coli) BAS849; assay: as above; format: cell-based; details: microbroth dilution, super sensitive Gram-negative E. coli BAS849, read-out: MIC, BAS849
Source text: as §1, §2

[3] = tested on: Staphylococcus aureus (S. aureus) 29213; assay: as above; format: cell-based; details: microbroth dilution, Gram-positive S. aureus 29213, read-out: MIC, 29213
Source text: as §1, §2

[4] = tested on: E. coli LZ3111; assay: Antibacterial activity, MIC, quinolone resistant strain (Table 2); format: cell-based; details: Escherichia coli, LZ3111, read-out: MIC LZ3111
Source text: as §1
Mutations in these regions are known to confer a high level resistance to the quinolone class of antibiotics.

| SMILES | MIC [1] | MIC [2] | MIC [3] | MIC [4] |
| --- | --- | --- | --- | --- |
| CCc1cc(C(=O)O)c(=O)[nH]c1-c1ccc2ccn(C)c2c1 [Cpd 7, 5-ethyl-6-(1-methyl-1H-indol-6-yl)-2-oxo-1,2-dihydropyridine-3-carboxylic acid] | 12.5 to 150 µg/mL (≈ 42.2 to 506 µM) | 1 to 3.5 µg/mL (≈ 3.37 to 11.8 µM) | 12.5 to 150 µg/mL (≈ 42.2 to 506 µM) | 12.5 to 150 µg/mL (≈ 42.2 to 506 µM) |
| CCc1c(-c2ccc3nc(C)oc3c2)[nH]c(=O)c(C(=O)O)c1O [Cpd 12, 5-ethyl-4-hydroxy-6-(2-methylbenzo[d]oxazol-6-yl)-2-oxo-1,2-dihydropyridine-3-carboxylic acid] | 12.5 to 150 µg/mL (≈ 39.8 to 477 µM) | 1 to 3.5 µg/mL (≈ 3.18 to 11.1 µM) | 12.5 to 150 µg/mL (≈ 39.8 to 477 µM) | 12.5 to 150 µg/mL (≈ 39.8 to 477 µM) |
| CCc1cc(C(=O)O)c(=O)[nH]c1-c1cn(C)c2ccccc12 [Cpd 13, 5-ethyl-6-(1-methyl-1H-indol-3-yl)-2-oxo-1,2-dihydropyridine-3-carboxylic acid] | 12.5 to 150 µg/mL (≈ 42.2 to 506 µM) | 3.5 to 12.5 µg/mL (≈ 11.8 to 42.2 µM) | 12.5 to 150 µg/mL (≈ 42.2 to 506 µM) | – |
| CCc1cc(C(=O)O)c(=O)[nH]c1-c1ccc2nc(-c3ccccc3)oc2c1 [Cpd 15, 5-ethyl-2-oxo-6-(2-phenylbenzo[d]oxazol-6-yl)-1,2-dihydropyridine-3-carboxylic acid] | 12.5 to 150 µg/mL (≈ 34.7 to 416 µM) | 1 to 3.5 µg/mL (≈ 2.77 to 9.71 µM) | 12.5 to 150 µg/mL (≈ 34.7 to 416 µM) | – |
| CCc1c(-c2ccc3nc(-c4ccccc4)oc3c2)[nH]c(=O)c(C(=O)O)c1O [Cpd 16, 5-ethyl-4-hydroxy-2-oxo-6-(2-phenylbenzo[d]oxazol-6-yl)-1,2-dihydropyridine-3-carboxylic acid] | 12.5 to 150 µg/mL (≈ 33.2 to 399 µM) | 3.5 to 12.5 µg/mL (≈ 9.3 to 33.2 µM) | 1 to 3.5 µg/mL (≈ 2.66 to 9.3 µM) | – |
| CCc1cc(C(=O)O)c(=O)[nH]c1-c1ccc2nc(N(C)C)oc2c1 [Cpd 17, 6-(2-(dimethylamino)benzo[d]oxazol-6-yl)-5-ethyl-2-oxo-1,2-dihydropyridine-3-carboxylic acid] | 12.5 to 150 µg/mL (≈ 38.2 to 458 µM) | 3.5 to 12.5 µg/mL (≈ 10.7 to 38.2 µM) | 1 to 3.5 µg/mL (≈ 3.05 to 10.7 µM) | – |
| CCc1c(-c2ccc3nc(N(C)C)oc3c2)[nH]c(=O)c(C(=O)O)c1O [Cpd 18, 6-(2-(dimethylamino)benzo[d]oxazol-6-yl)-5-ethyl-4-hydroxy-2-oxo-1,2-dihydropyridine-3-carboxylic acid] | 12.5 to 150 µg/mL (≈ 36.4 to 437 µM) | 3.5 to 12.5 µg/mL (≈ 10.2 to 36.4 µM) | 1 to 3.5 µg/mL (≈ 2.91 to 10.2 µM) | 12.5 to 150 µg/mL (≈ 36.4 to 437 µM) |
| CCc1cc(C(=O)O)c(=O)[nH]c1-c1ccc2ncccc2c1 [Cpd 19, 5-ethyl-2-oxo-6-(quinolin-6-yl)-1,2-dihydropyridine-3-carboxylic acid] | 12.5 to 150 µg/mL (≈ 42.5 to 510 µM) | 12.5 to 150 µg/mL (≈ 42.5 to 510 µM) | 12.5 to 150 µg/mL (≈ 42.5 to 510 µM) | – |
| CCc1cc(C(=O)O)c(=O)[nH]c1-c1ccc2c(ccn2CCO)c1 [Cpd 23, 5-ethyl-6-(1-(2-hydroxyethyl)-1H-indol-5-yl)-2-oxo-1,2-dihydropyridine-3-carboxylic acid] | 3.5 to 12.5 µg/mL (≈ 10.7 to 38.3 µM) | < 1 µg/mL | 12.5 to 150 µg/mL (≈ 38.3 to 460 µM) | 12.5 to 150 µg/mL (≈ 38.3 to 460 µM) |
| CCc1cc(C(=O)O)c(=O)[nH]c1-c1ccc2c(ccn2CC2OCCO2)c1 [Cpd 25, 6-(1-((1,3-dioxolan-2-yl)methyl)-1H-indol-5-yl)-5-ethyl-2-oxo-1,2-dihydropyridine-3-carboxylic acid] | 12.5 to 150 µg/mL (≈ 33.9 to 407 µM) | < 1 µg/mL | 12.5 to 150 µg/mL (≈ 33.9 to 407 µM) | – |
| CCc1c(-c2ccc3c(ccn3CC3OCCO3)c2)[nH]c(=O)c(C(=O)O)c1O [Cpd 26, 6-(1-((1,3-dioxolan-2-yl)methyl)-1H-indol-5-yl)-5-ethyl-4-hydroxy-2-oxo-1,2-dihydropyridine-3-carboxylic acid] | 12.5 to 150 µg/mL (≈ 32.5 to 390 µM) | < 1 µg/mL | 3.5 to 12.5 µg/mL (≈ 9.11 to 32.5 µM) | – |
| CCc1cc(C(=O)O)c(=O)[nH]c1-c1ccc2c(c1)c1c(n2C)CCCC1 [Cpd 27, 5-ethyl-6-(9-methyl-2,3,4,9-tetrahydro-1H-carbazol-6-yl)-2-oxo-1,2-dihydropyridine-3-carboxylic acid] | 12.5 to 150 µg/mL (≈ 35.7 to 428 µM) | < 1 µg/mL | 3.5 to 12.5 µg/mL (≈ 9.99 to 35.7 µM) | – |
| CCc1c(-c2ccc3c(c2)c2c(n3C)CCCC2)[nH]c(=O)c(C(=O)O)c1O [Cpd 28, 5-ethyl-4-hydroxy-6-(9-methyl-2,3,4,9-tetrahydro-1H-carbazol-6-yl)-2-oxo-1,2-dihydropyridine-3-carboxylic acid] | 12.5 to 150 µg/mL (≈ 34.1 to 409 µM) | 12.5 to 150 µg/mL (≈ 34.1 to 409 µM) | < 1 µg/mL | 12.5 to 150 µg/mL (≈ 34.1 to 409 µM) |
| CCc1cc(C(=O)O)c(=O)[nH]c1-c1ccc2c(c1)c(C)c(C)n2C [Cpd 29, 5-ethyl-2-oxo-6-(1,2,3-trimethyl-1H-indol-5-yl)-1,2-dihydropyridine-3-carboxylic acid] | 12.5 to 150 µg/mL (≈ 38.5 to 462 µM) | < 1 µg/mL | 12.5 to 150 µg/mL (≈ 38.5 to 462 µM) | – |
| CCc1c(-c2ccc3c(c2)c(C)c(C)n3C)[nH]c(=O)c(C(=O)O)c1O [Cpd 30, 5-ethyl-4-hydroxy-2-oxo-6-(1,2,3-trimethyl-1H-indol-5-yl)-1,2-dihydropyridine-3-carboxylic acid] | 12.5 to 150 µg/mL (≈ 36.7 to 441 µM) | 1 to 3.5 µg/mL (≈ 2.94 to 10.3 µM) | 1 to 3.5 µg/mL (≈ 2.94 to 10.3 µM) | 12.5 to 150 µg/mL (≈ 36.7 to 441 µM) |
| CC(C)c1c(-c2ccc3c(ccn3C)c2)[nH]c(=O)c(C(=O)O)c1O [Cpd 34, 4-hydroxy-5-isopropyl-6-(1-methyl-1H-indol-5-yl)-2-oxo-1,2-dihydropyridine-3-carboxylic acid] | 3.5 to 12.5 µg/mL (≈ 10.7 to 38.3 µM) | < 1 µg/mL | 1 to 3.5 µg/mL (≈ 3.06 to 10.7 µM) | – |
| CCc1cc(C(=O)O)c(=O)[nH]c1-c1cc2cc(C(=O)O)n(C)c2cn1 [Cpd 54, 5-(5-carboxy-3-ethyl-6-oxo-1,6-dihydropyridin-2-yl)-1-methyl-1H-pyrrolo[2,3-c]pyridine-2-carboxylic acid] | 12.5 to 150 µg/mL (≈ 36.6 to 439 µM) | 1 to 3.5 µg/mL (≈ 2.93 to 10.3 µM) | 12.5 to 150 µg/mL (≈ 36.6 to 439 µM) | 12.5 to 150 µg/mL (≈ 36.6 to 439 µM) |
| CCc1cc(C(=O)O)c(=O)[nH]c1-c1cnc2[nH]ccc2c1 [Cpd 55, 5-ethyl-2-oxo-6-(1H-pyrrolo[2,3-b]pyridin-5-yl)-1,2-dihydropyridine-3-carboxylic acid] | 12.5 to 150 µg/mL (≈ 44.1 to 529 µM) | 12.5 to 150 µg/mL (≈ 44.1 to 529 µM) | 12.5 to 150 µg/mL (≈ 44.1 to 529 µM) | 12.5 to 150 µg/mL (≈ 44.1 to 529 µM) |
| CCc1cc(C(=O)O)c(=O)[nH]c1-c1ccc2c(c1)N(C)CCN2C [Cpd 56, 6-(1,4-dimethyl-1,2,3,4-tetrahydroquinoxalin-6-yl)-5-ethyl-2-oxo-1,2-dihydropyridine-3-carboxylic acid] | 12.5 to 150 µg/mL (≈ 38.2 to 458 µM) | 3.5 to 12.5 µg/mL (≈ 10.7 to 38.2 µM) | 12.5 to 150 µg/mL (≈ 38.2 to 458 µM) | 12.5 to 150 µg/mL (≈ 38.2 to 458 µM) |
| CCc1cc(C(=O)O)c(=O)[nH]c1-c1ccc2nccnc2c1 [Cpd 57, 5-ethyl-2-oxo-6-(quinoxalin-6-yl)-1,2-dihydropyridine-3-carboxylic acid] | 12.5 to 150 µg/mL (≈ 42.3 to 508 µM) | 12.5 to 150 µg/mL (≈ 42.3 to 508 µM) | 12.5 to 150 µg/mL (≈ 42.3 to 508 µM) | 12.5 to 150 µg/mL (≈ 42.3 to 508 µM) |
| CCc1cc(C(=O)O)c(=O)[nH]c1-c1cnc2c(c1)OCCN2C [Cpd 58, 5-ethyl-6-(4-methyl-3,4-dihydro-2H-pyrido[3,2-b][1,4]oxazin-7-yl)-2-oxo-1,2-dihydropyridine-3-carboxylic acid] | 12.5 to 150 µg/mL (≈ 39.6 to 476 µM) | 3.5 to 12.5 µg/mL (≈ 11.1 to 39.6 µM) | 12.5 to 150 µg/mL (≈ 39.6 to 476 µM) | 12.5 to 150 µg/mL (≈ 39.6 to 476 µM) |
| CCc1cc(C(=O)O)c(=O)[nH]c1-c1cnc2c(c1)c(C#N)cn2C [Cpd 59, 6-(3-cyano-1-methyl-1H-pyrrolo[2,3-b]pyridin-5-yl)-5-ethyl-2-oxo-1,2-dihydropyridine-3-carboxylic acid] | 12.5 to 150 µg/mL (≈ 38.8 to 465 µM) | 12.5 to 150 µg/mL (≈ 38.8 to 465 µM) | 12.5 to 150 µg/mL (≈ 38.8 to 465 µM) | 12.5 to 150 µg/mL (≈ 38.8 to 465 µM) |
| CCc1cc(C(=O)O)c(=O)[nH]c1-c1ccc2nc(CN(C)C)cn2c1.Cl.Cl [Cpd 60, 6-(2-((dimethylamino)methyl)imidazo[1,2-a]pyridin-6-yl)-5-ethyl-2-oxo-1,2-dihydropyridine-3-carboxylic acid dihydrochloride] | 12.5 to 150 µg/mL | 12.5 to 150 µg/mL | 12.5 to 150 µg/mL | 12.5 to 150 µg/mL |
| CCc1cc(C(=O)O)c(=O)[nH]c1-c1ccc2nc(CN3CCCC3)cn2c1.Cl.Cl [Cpd 61, 5-ethyl-2-oxo-6-(2-(pyrrolidin-1-ylmethyl)imidazo[1,2-a]pyridin-6-yl)-1,2-dihydropyridine-3-carboxylic acid dihydrochloride] | 12.5 to 150 µg/mL | 12.5 to 150 µg/mL | 12.5 to 150 µg/mL | 12.5 to 150 µg/mL |
| CCc1cc(C(=O)O)c(=O)[nH]c1-c1ccc2nc(CN3CCCCC3)cn2c1.Cl.Cl [Cpd 62, 5-ethyl-2-oxo-6-(2-(piperidin-1-ylmethyl)imidazo[1,2-a]pyridin-6-yl)-1,2-dihydropyridine-3-carboxylic acid dihydrochloride] | 12.5 to 150 µg/mL | 12.5 to 150 µg/mL | 12.5 to 150 µg/mL | 12.5 to 150 µg/mL |
